Experiments:
PCSK9 protein = target: T1, PCSK9 protein (Homo sapiens, UniProt Q8NBP7); assay: Binding ability to PCSK9 protein (HTRF); details: PCSK9-His, Alexa Fluor 647 probe compound
T1 construct: purchased Sino biology (Sino Biological) 29698-H08H
Experimental: 1. Experimental objective: To detect the action of compounds to bind PCSK9 protein by an HTRF method.
3. Experimental data processing method: Four-parameter log(inhibitor) vs. response—Variable slope (four parameters) in XLit was used to perform non-linear fitting of the compound concentration and the corresponding inhibition rate, and IC50 was calculated.

[1] = system: PCSK9 secreted by HepG2 cells; assay: Effect on the concentration of PCSK9 secreted by HepG2 cells (ELISA); assay type: cell-based; details: Homo sapiens, 48 hours, PCSK9 in culture medium by ELISA
Experimental: 1. Experimental objective: To detect the inhibitory effect of the compounds on PCSK9.
2. Experimental method: • 1) HepG2 cell strain was cultured in the complete culture medium at 37° C., 5% CO2 to 70-90% confluence. • 2) The cells were digested and resuspended in the experimental culture medium, inoculated at 25,000 cells/well/200 μL in a 96-well cell culture plate, and cultured at 37° C. and 5% CO2 for 20-24 hours. • 3) The culture medium was removed from the cell culture plate, and the cell culture plate was washed once by adding 200 ul of the experimental culture medium to each well. • 4) Preparation of positive control compound and compound to be tested: the positive control compound and the compound to be tested were diluted on the compound plate. • 5) The diluted compound was added to the cell culture plate at 250 μL per well and incubated at 37° C. and 5% CO2 for 48 hours. • 6) The cell culture medium was collected at 200 μL per well and cryopreserved at −80° C. for later use. • 7) A sample of the cell culture medium was taken from the −80° C. cryopreservation condition, dissolved, vortexed, and centrifuged for later use. • 8) Preparation of standard curve: corresponding volumes of Dilution buffer were successively added to respective standard tubes, and in the order of the concentrations of 10, 5, 2.5, 1.25, 0.625, 0.313, 0.16, 0 ng/mL, the standard was diluted in series by taking the corresponding volume from the original tube or the last concentration tube. • 9) Preparation of washing liquid: 10x Wash buffer was diluted into 1x with Milli-Q for later use. • 10) According to the standard curve wells and sample wells set according to a plate map, 100 μL/well of the corresponding standards and culture medium samples were added to the wells, with 2 replicate wells. A self-adhesive seal was applied, the plate was placed on a plate shaker at room temperature, gently shaken, uniformly mixed, and incubated for 1 hour. • 11) The plate was placed on the plate washer, the washing liquid was set to 350 μL per well, and the plate was washed 4 times repeatedly. • 12) 100 μL/well of an HRP-conjugated detection antibody was added, a self-adhesive seal was applied, and the plate was placed on the plate shaker, well mixed uniformly, and incubated for 1 hour. • 13) The plate was placed on the plate washer, the washing liquid was set to 350 μL per well, and the plate was washed 4 times repeatedly. • 14) 100 μL/well of Substrate reagent was added, and the plate was placed in the dark, applied with a self-adhesive seal, placed on the plate shaker, well mixed uniformly, and incubated for 10-20 minutes. • 15) 100 μL of Stop solution (1N H2SO4) was added to each well and mixed uniformly. • 16) The optical density (OD) value in each well was measured in sequence at a wavelength of 450 nm by the microplate reader. Detection was carried out within 30 min after the reaction was stopped.
3. Experimental data processing method: After the OD values were read by the microplate reader, the OD value of the 0-concentration standard in the standard group was subtracted from the OD values of the standards, control group, and samples to obtain the actual OD values for these wells. A standard curve was plotted with Graphpad and the concentration of the sample was calculated. If the dilution was performed during the sample detection, the calculated sample concentration was necessarily multiplied by the corresponding dilution ratio in the final calculation, which was the actual concentration of the sample. Inhibition rate=(actual concentration in control−actual concentration in sample)/actual concentration in control*100. According to the inhibition rates corresponding to the different concentrations, IC50 was derived by Graphpad.

[2] = Pharmacokinetic determination in mice (PO 5 mg/kg, IV 1 mg/kg); assay type: in vivo, C57BL/6J mice; details: male, C57BL/6J, mouse, plasma, C57 mice, PO administration, 5 mpk; for AUC(0-inf): read-out: Area under the curve AUC0-∞; for half-life: read-out: Half-life t1/2 (converted); for MRT: read-out: Mean residence time MRT; for Cmax: read-out: Plasma concentration Cmax; for Tmax: read-out: Time to peak tmax
Experimental: 1. Experimental objective: C57BL/6J mice were used as test animals to study the pharmacokinetic behavior of the compounds of the present disclosure in mice (plasma) after oral and intravenous administration.
2.2 Test animals: C57 mice, male, purchased from Shanghai Bk Lab Animal Co., Ltd., with animal production license number (SCXK (Shanghai) 2013-0006 N0.311620400001794).
2.3 Drug preparation: Preparation of oral drug: 10% Solutol HS15
10 g of Solutol HS15 solid was weighed, dissolved in 90 mL of pure water, uniformly mixed, stirred, and ultrasonically treated to form a clear solution. The compound of the present disclosure was weighed and dissolved in this solution, uniformly shaken, and ultrasonically treated for 15 minutes to obtain a colorless clear solution with a concentration of 0.5 mg/mL. Preparation of intravenous drug: 5% DMSO+10% Solutol HS15+85% PBS, the compound of the present disclosure was weighed, 5% DMSO was first added on the basis of the proportion relative to the total volume of administration, and the mixture was vortexed and ultrasonically treated for 2 min until it was completely dissolved; 10% of Solutol HS15 was then added, and the mixture was vortexed and ultrasonically treated for 2 min until it was completely dissolved; and finally, 85% of PBS was added, and the mixture was vortexed, ultrasonically treated for 5 min, and filtered through a 0.22 um filter membrane to obtain a colorless and transparent clear solution with a concentration of 0.2 mg/mL.
2.4 Administration: 3 male C57 mice were fasted overnight and then respectively administered PO at a dose of 5 mg/kg and a volume of 10 mL/kg. 3 male C57 mice were fasted overnight and then respectively administered IV at a dose of 1 mg/kg and a volume of 5 mL/kg.
2.5 Sample collection: Before and after administration of mice, 0.04 mL of blood was collected from the orbit at 0.083 (iv), 0.25, 0.5, 1, 2, 4, 8, and 24 hours, and placed in EDTA-K2 test tubes, which was centrifuged at 6000 rpm at 4° C. for 6 min to separate plasma which was stored at −80° C.; and the […] were fed 4 h after administration.
2.6 Determination results: The final determination results were obtained by using an LCMS/MS method.
3. Experimental results: The main pharmacokinetic parameters were calculated using WinNonlin 6.1.

T1 sequence (Q8NBP7 153-692): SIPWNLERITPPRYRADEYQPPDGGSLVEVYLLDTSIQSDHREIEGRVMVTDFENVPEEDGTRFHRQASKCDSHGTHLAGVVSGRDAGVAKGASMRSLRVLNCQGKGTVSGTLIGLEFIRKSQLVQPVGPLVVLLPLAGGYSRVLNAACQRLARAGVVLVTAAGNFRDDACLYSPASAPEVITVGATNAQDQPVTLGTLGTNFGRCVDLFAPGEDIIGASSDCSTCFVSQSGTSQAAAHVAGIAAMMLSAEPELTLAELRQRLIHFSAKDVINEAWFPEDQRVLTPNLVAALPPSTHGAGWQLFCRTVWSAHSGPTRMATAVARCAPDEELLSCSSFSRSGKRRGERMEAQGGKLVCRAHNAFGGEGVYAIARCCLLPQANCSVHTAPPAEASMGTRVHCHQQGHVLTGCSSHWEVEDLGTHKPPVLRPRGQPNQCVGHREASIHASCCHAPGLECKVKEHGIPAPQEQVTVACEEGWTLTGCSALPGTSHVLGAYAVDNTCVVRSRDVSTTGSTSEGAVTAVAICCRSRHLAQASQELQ

`N#Cc1cnc2c(c1)C(=O)N(c1ccc(N[C@H]3CC[C@H](Nc4nc5cc(C(F)(F)F)ccn5n4)C3)nc1)C2` [Example 65, 5-carbonyl-6-(6-(((1S,3S)-3-((7-(trifluoromethyl)-[1,2,4]triazolo[1,5-a]pyridin-2-yl)amino)cyclopentyl)amino)pyridin-3-yl)-6,7-dihydro-5H-pyrrolo[3,4-b]pyridine-3-carbonitrile] showed an IC50 (PCSK9 protein) of 0.0139 µM, an IC50 [1] of 12.8 µM and an AUC(0-inf) [2] of 70000 ng·h/mL. It also gave a half-life [2] of 4 h, an MRT [2] of 5.8 h and a Cmax [2] of 7870 ng/mL. For the same compound, the Tmax [2] was 4 h.

For `O=C1c2ccc(C3CC3)nc2CN1c1ccc(N[C@H]2CC[C@H](Nc3nc4cc(C(F)(F)F)ccn4n3)C2)nc1` [Example 68, 2-cyclopropyl-6-(6-(((1S,3S)-3-((7-(trifluoromethyl)-[1,2,4]triazolo[1,5-a]pyridin-2-yl)amino)cyclopentyl)amino)pyridin-3-yl)-6,7-dihydro-5H-pyrrolo[3,4-b]pyridin-5-one], the IC50 (PCSK9 protein) was 0.0098 µM and the IC50 [1] was 2 µM.

For `N#Cc1nccc2c1CN(c1ccc(N[C@H]3CC[C@H](Nc4nc5cc(C(F)(F)F)ccn5n4)C3)nc1)C2=O` [Example 76, 1-carbonyl-2-(6-(((1S,3S)-3-((7-(trifluoromethyl)-[1,2,4]triazolo[1,5-a]pyridin-2-yl)amino)cyclopentyl)amino)pyridin-3-yl)-2,3-dihydro-1H-pyrrolo[3,4-c]pyridine-4-carbonitrile], the IC50 (PCSK9 protein) was 0.0139 µM and the IC50 [1] was 4.8 µM.

With `CC(C)(O)c1ccn(-c2ccc(=O)n(-c3ccc(N[C@H]4CC[C@H](Nc5nc6cc(C(F)(F)F)ccn6n5)C4)nc3)c2)n1` [Example 79, 5-(3-(2-hydroxypropan-2-yl)-1H-pyrazol-1-yl)-6′-(((1S,3S)-3-((7-(trifluoromethyl)-[1,2,4]triazolo[1,5-a]pyridin-2-yl)amino)cyclopentyl)amino)-2H-[1,3′-bipyridine]-2-one] the IC50 (PCSK9 protein) was 0.0249 µM and the IC50 [1] was 15.1 µM.

Work on `Cc1ccc2c(c1)C(=O)N(c1ccc(N[C@H]3CC[C@H](Nc4nc5cc(C(F)(F)F)ccn5n4)C3)nc1)C2` [Example 82, 6-methyl-2-(6-(((1S,3S)-3-((7-(trifluoromethyl)-[1,2,4]triazolo[1,5-a]pyridin-2-yl)amino)cyclopentyl)amino)pyridin-3-yl)isoindolin-1-one] yielded an IC50 (PCSK9 protein) of 0.0118 µM and an IC50 [1] of 0.8 µM.

For `O=C1c2cc(F)ccc2CN1c1ccc(N[C@H]2CC[C@H](Nc3nc4cc(C(F)(F)F)ccn4n3)C2)nc1` [Example 83, 6-fluoro-2-(6-(((1S,3S)-3-((7-(trifluoromethyl)-[1,2,4]triazolo[1,5-a]pyridin-2-yl)amino)cyclopentyl)amino)pyridin-3-yl)isoindolin-1-one], the IC50 (PCSK9 protein) was 0.0115 µM and the IC50 [1] was 1.1 µM.

In the case of `O=C1c2ccccc2CN1c1ccc(N[C@H]2CC[C@H](Nc3nc4cc(C(F)(F)F)ccn4n3)C2)nc1` [Example 84, 2-(6-(((1S,3S)-3-((7-(trifluoromethyl)-[1,2,4]triazolo[1,5-a]pyridin-2-yl)amino)cyclopentyl)amino)pyridin-3-yl)isoindolin-1-one], the IC50 (PCSK9 protein) is reported as 0.0063 µM and the IC50 [1] is reported as 4.7 µM.

`Cc1ccc2c(n1)C(=O)N(c1ccc(N[C@H]3CC[C@H](Nc4nc5cc(C(F)(F)F)ccn5n4)C3)nc1)C2` [Example 91, 2-methyl-6-(6-(((1S,3S)-3-((7-(trifluoromethyl)-[1,2,4]triazolo[1,5-a]pyridin-2-yl)amino)cyclopentyl)amino)pyridin-3-yl)-5,6-dihydro-7H-pyrrolo[3,4-b]pyridin-7-one] showed an IC50 (PCSK9 protein) of 0.0104 µM and an IC50 [1] of 12.9 µM.

`Cc1cnc2c(c1)CN(c1ccc(N[C@H]3CC[C@H](Nc4nc5cc(C(F)(F)F)ccn5n4)C3)nc1)C2=O` [Example 94] showed an IC50 (PCSK9 protein) of 0.0095 µM and an IC50 [1] of 20.5 µM.

`Cc1cc2c(cn1)CN(c1ccc(N[C@H]3CC[C@H](Nc4nc5cc(OC(F)F)ccn5n4)C3)nc1)C2=O` [Example 99] gave an IC50 [1] of 6.6 µM, an AUC(0-inf) [2] of 27900 ng·h/mL and a half-life [2] of 2.7 h. The MRT [2] was 3.4 h, the Cmax [2] was 7240 ng/mL and the Tmax [2] was 0.25 h.

`Cc1cn(-c2ccc(N[C@H]3CC[C@H](Nc4nc5cc(C(F)(F)F)ccn5n4)C3)nc2)c(=O)nc1N` [Example 109] showed an IC50 (PCSK9 protein) of 0.0161 µM and an IC50 [1] of 19.6 µM.

`Cc1cn(-c2ccc(N[C@H]3CC[C@H](Nc4nc5cc(C(F)(F)F)ccn5n4)C3)nc2)c(=O)nc1O` [Example 111] showed an IC50 (PCSK9 protein) of 0.0162 µM and an IC50 [1] of 11.2 µM.

`Cc1cnc2c(c1)C(=O)N(c1ccc(N[C@H]3CC[C@H](Nc4nc5cc(C(F)(F)F)ccn5n4)C3)nc1)C2` [Example 115] gave an IC50 (PCSK9 protein) of 0.0099 µM and an IC50 [1] of 2.6 µM.

With `O=C1c2cc(Cl)cnc2CN1c1ccc(N[C@H]2CC[C@H](Nc3nc4cc(C(F)(F)F)ccn4n3)C2)nc1` [Example 116] the IC50 (PCSK9 protein) was 0.0164 µM and the IC50 [1] was 0.5 µM.

`O=C1c2ccc(Cl)cc2CN1c1ccc(N[C@H]2CC[C@H](Nc3nc4cc(C(F)(F)F)ccn4n3)C2)nc1` [Example 117] gave an IC50 (PCSK9 protein) of 0.0183 µM and an IC50 [1] of 0.4 µM.

Work on `O=C1c2cc(Cl)cnc2CN1c1ccc(N[C@H]2CC[C@H](Nc3nc4cc(OC(F)F)ccn4n3)C2)nc1` [Example 130] yielded an IC50 [1] of 1.5 µM, an AUC(0-inf) [2] of 57900 ng·h/mL and a half-life [2] of 3.6 h. The MRT [2] was 6.1 h, the Cmax [2] was 5090 ng/mL and the Tmax [2] was 1 h.

Compound `N#Cc1cnc2c(c1)C(=O)N(c1cnc(N[C@H]3CC[C@H](Nc4nc5cc(C(F)(F)F)ccn5n4)C3)c(F)c1)C2` [Example 147] has an IC50 (PCSK9 protein) of 0.0088 µM and an IC50 [1] of 0.3 µM.

For `N#Cc1cnc2c(c1)C(=O)N(c1cnc(N[C@H]3CC[C@H](Nc4nc5cc(OC(F)F)ccn5n4)C3)c(F)c1)C2` [Example 153], the IC50 (PCSK9 protein) was 0.0122 µM and the IC50 [1] was 0.8 µM.

In the case of `N#Cc1ccnc2c1C(=O)N(c1ccc(N[C@H]3CC[C@H](Nc4nc5cc(C(F)(F)F)ccn5n4)C3)nc1)C2` [Example 163], the IC50 (PCSK9 protein) is reported as 0.0063 µM and the IC50 [1] is reported as 10.8 µM.

Reference: patent publication US12612403B2, “Nitrogen-containing heterocyclic derivative inhibitor, and preparation method therefor and use thereof” (SHANGHAI HANSOH BIOMEDICAL CO., LTD., priority 2024, dated 2026)
